# Assay results reported in patent publication US5019574A, “3,4-diaminoquinoline and 3,4-diamino-5,6,7,8-tetrahydroquinoline compounds useful for improving psychoneural function” (Chugai Seiyaku Kabushiki Kaisha, priority 1988, dated 1991).
# Like-named read-outs stand apart in the source and are kept apart here.
# How the values were obtained:
# MAO-A = target: T1, MAO-A (Rattus norvegicus, UniProt P21396); assay: Inhibition of monoamine oxidase: MAO-A; format: biochemical, rats (F344/Crj); settings: 10 μM; 12 μM [14C]-serotonin substrate; None = 100; read-out: Inhibition rate (%) MAO-A
# T1 construct: A crude synaptosomal fraction (P2) was obtained from the brain of rats (F344/Crj); from tissue; host or cells: rat (F344/Crj) brain, crude synaptosomal fraction (P2), homogenized
# T1 sequence (P21396 1-526): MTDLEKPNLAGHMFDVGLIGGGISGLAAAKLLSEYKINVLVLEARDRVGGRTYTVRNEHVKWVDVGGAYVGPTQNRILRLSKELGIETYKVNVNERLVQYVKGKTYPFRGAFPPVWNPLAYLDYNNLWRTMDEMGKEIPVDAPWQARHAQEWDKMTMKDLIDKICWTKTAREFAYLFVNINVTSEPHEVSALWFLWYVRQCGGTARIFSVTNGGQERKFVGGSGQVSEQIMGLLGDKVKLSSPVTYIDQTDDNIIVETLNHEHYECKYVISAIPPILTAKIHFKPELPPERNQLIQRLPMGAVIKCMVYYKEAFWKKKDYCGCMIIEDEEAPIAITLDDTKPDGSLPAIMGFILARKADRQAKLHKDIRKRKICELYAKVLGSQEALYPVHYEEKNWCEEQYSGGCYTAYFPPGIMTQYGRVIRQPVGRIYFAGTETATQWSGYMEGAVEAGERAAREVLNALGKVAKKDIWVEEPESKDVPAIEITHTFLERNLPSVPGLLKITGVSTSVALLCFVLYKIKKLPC
# Method: (§1) Inhibition of Monoamine Oxidase (MAO):
# (§2) A crude synaptosomal fraction (P2) was obtained from the brain of rats (F344/Crj) in the usual manner and homogenized to perform MAO activity measurements. The substrate was 12 μM [^14 C]-serotonin in the case of MAO-A activity measurements, and 5 μM [^14 C]-2-phenethylamine in the case of MAO-B activity measurements. In accordance with the method of R. J. Wurtman and J. Axelrod described in Biochemical Pharmacol. 12, […], 1963, the homogenates were incubated in 100 mM phosphate buffer (pH 7.4) at 37° C. for 20 minutes and the effect of adding selected compounds at a concentration of 10 μM was evaluated.
# male rats (F344) = format: in vivo; settings: p<0.05, n=6, AF64AP-treated rats
# male ICR mice = assay: Improvement of memory and learning ability tested by passive avoidance response; format: in vivo; settings: dose 10 (μg/kg i.p.); retention trial 24 hours after acquisition trial
# Method: Improvement of memory and Learning Ability Tested by Passive Avoidance Response:
# Four groups of male ICR mice (10-14 weeks old). each consisting of 10 animals, were used in the experiment. Except for one control group, the mice were administered with selected compounds of the present invention. The experimental chamber consisted of a light and a dark compartment and an electric current shock source was connected to the floor grid in the dark compartment.
# The experimental sessions consisted of acclimation. acquisition, and retention trials and were performed for […], one trial per day. In the acclimation trial, animals were placed in the light compartment of the experimental chamber and left there for 5 minutes to acclimate them to the apparatus. In the acquisition trial which was conducted on the 2nd day, the animals were placed in the light compartment and when they entered the dark compartment, they were confined and given an a.c. electric shock (1 mA) through the floor grid for 10 seconds. In the retention trial which was conducted 24 hours after the acquisition trial, the animals were placed in the light compartment of the chamber and the step-through latency (i.e., the time required for the animals to enter the dark compartment) was measured. A physiological saline solution was administered at the acclimation trial to all of the animals. At the acquisition trial, selected compounds were administered in amounts of 10 μg/kg of body weight (1 ml/100 g). The control group was administered the same amount of physiological saline solution 60 minutes before the start of the trial. All administrations were intraperitoneal.
# MAO-B = target: T2, MAO-B (Rattus norvegicus, UniProt P19643); assay: Inhibition of monoamine oxidase: MAO-B; format: biochemical, rats (F344/Crj); settings: 10 μM; 5 μM [14C]-2-phenethylamine substrate; None = 100; read-out: Inhibition rate (%) MAO-B
# T2 construct: A crude synaptosomal fraction (P2) was obtained from the brain of rats (F344/Crj); from tissue; host or cells: rat (F344/Crj) brain, crude synaptosomal fraction (P2), homogenized
# T2 sequence (P19643 1-520): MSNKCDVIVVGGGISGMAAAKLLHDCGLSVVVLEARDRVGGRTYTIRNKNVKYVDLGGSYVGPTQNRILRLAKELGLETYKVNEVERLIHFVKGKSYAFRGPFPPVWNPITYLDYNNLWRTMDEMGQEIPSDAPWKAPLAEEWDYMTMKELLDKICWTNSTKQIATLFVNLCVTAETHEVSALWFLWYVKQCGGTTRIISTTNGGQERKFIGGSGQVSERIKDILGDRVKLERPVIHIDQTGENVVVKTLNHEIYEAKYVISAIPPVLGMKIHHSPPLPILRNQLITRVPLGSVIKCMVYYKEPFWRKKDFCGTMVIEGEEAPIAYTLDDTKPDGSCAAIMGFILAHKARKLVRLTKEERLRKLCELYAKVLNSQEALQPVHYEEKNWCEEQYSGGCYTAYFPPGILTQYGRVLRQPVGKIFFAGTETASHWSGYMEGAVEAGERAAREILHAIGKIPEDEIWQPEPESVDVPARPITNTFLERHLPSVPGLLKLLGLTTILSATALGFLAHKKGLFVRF
# Method: as §1, §2
# [1] = system: norepinephrine uptake into the synaptosomes; assay: Inhibition of catecholamine uptake: 3H-norepinephrine uptake into synaptosomes; format: biochemical, rats (F344/Crj); settings: 1 μM; norepinephrine uptake in the absence of drug compounds taken as 100
# Method: (§3) Inhibition of Catecholamine Uptake:
# (§4) A crude synaptosomal fraction (P2) was obtained from the brain of rats (F344/Crj) in the usual manner. In accordance with the method of S. H. Snyder and J. T. Coyle described in Journal of Pharmacology and Experimental Therapeutics, 165(1), 78-86, 1969, the fraction P2 was incubated in a Krebs-Henseleit bicarbonate buffer solution at 37° C. for 10 minutes together with 50 nM ^3 H-norepinephrine (0.25 jμCi). Thereafter, the uptake of norepinephrine into the synaptosomes was measured by the filtration method. Selected compounds were added at a concentration of 1 μM to the solution being incubated and their effect on norepinephrine uptake was examined. The control drug was tetrahydroaminoacridine (THA).
# The results are shown in Table 3 in terms of percentage, with norepinephrine uptake in the absence of drug compounds being taken as 100.
# acetylcholinesterase = target: T3, acetylcholinesterase (Electrophorus electricus, UniProt O42275); assay: Inhibition of acetylcholinesterase activity; format: biochemical; settings: activity without drug compound taken as 100, average of three measurements, read-out: Inhibition rate (%)
# T3 construct: purchased Sigma C-2888
# Method: Inhibition of Acetylcholinesterase Activity:
# Acetylcholinesterase activity was assayed in accordance with the method of S. H. Sterri and F. Fonnum described in European Journal of Biochemistry, 91: 215-222, 1978. The method consisted of incubating 0.5 μU of authentic acetylcholinesterase ([…]) (Sigma, No. C-2888) at 30° C. for 15 minutes in a 20 mM sodium phosphate buffer (pH 7.4). with 1.3 mM [1^-14 C] acetylcholine (0.025 μCi) being used as a substrate. Selected compounds of the general formula (I) were added at a concentration of 1 μM to the reaction solution and the resulting effect on enzymatic activity was evaluated.
# The result was obtained as the average of three measurements and shown in Table 2 in terms of percentage, with the activity for the case where no drum compound was added being taken as 100.
# [2] = system: uptake of dopamine into synaptosomes; assay: Inhibition of catecholamine uptake: 3H-dopamine uptake into synaptosomes; format: biochemical, rats (F344/Crj); settings: 1 μM; dopamine uptake in the absence of drugs taken as 100
# Method: as §4, §3
# The uptake of dopamine into synaptosomes was measured by repeating the procedure of Test Example 2 except that 50 nM ^3 H-norepinephrine (0.25 μCi) was replaced by 15 nM ^3 H-dopamine (0.68 μCi). The control drug was tetrahydroaminoacridine (THA). The result is shown in Table 5 in terms of percentage, with dopamine uptake in the absence of drugs being taken as 100.
# T3 sequence (O42275 24-633): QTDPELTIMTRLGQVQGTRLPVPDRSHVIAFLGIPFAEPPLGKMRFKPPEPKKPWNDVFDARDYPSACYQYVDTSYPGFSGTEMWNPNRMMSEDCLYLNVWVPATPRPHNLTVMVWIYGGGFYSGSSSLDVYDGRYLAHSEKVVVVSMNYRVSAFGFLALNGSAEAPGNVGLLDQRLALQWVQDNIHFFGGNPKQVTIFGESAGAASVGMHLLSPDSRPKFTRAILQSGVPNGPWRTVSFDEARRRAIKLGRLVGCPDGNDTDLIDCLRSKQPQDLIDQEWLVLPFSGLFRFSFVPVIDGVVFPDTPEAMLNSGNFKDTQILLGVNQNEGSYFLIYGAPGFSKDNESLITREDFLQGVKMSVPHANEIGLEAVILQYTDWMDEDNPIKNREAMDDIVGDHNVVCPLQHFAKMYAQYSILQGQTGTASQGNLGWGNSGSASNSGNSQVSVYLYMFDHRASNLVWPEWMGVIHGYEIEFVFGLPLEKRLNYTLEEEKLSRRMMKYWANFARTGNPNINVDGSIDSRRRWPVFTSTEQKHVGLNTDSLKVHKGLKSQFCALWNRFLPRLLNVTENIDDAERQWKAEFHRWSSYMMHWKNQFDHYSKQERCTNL
Compound,inhibition at 10 µM (MAO-A) [%],number of correct responses vs vehicle control (male rats (F344); 10 mg/kg orally),number of correct responses vs vehicle control (male rats (F344); 30 mg/kg orally),Step through latency (male ICR mice) [s],inhibition at 10 µM (MAO-B) [%],Inhibition rate (%) [1] [%],inhibition at 1 µM (acetylcholinesterase) [%],Inhibition rate (%) [2] [%]
"Nc1c(N2CCCCC2)c(C2CCCCC2=O)nc2ccccc12 (centres unmarked) [Compound 7, 4-amino-3-piperidino-2-(2'-oxocyclohexyl)quinoline]",58.7,statistically significant increase in the number of correct responses,statistically significant increase in the number of correct responses,104.1 ± 28.5,87.5,79.0,38.1,86.4
Nc1c2c(nc(C3CCCCC3O)c1N1CCCCC1)CCCC2 (centres unmarked) [Compound 9],59.4,–,–,54.4 ± 7.2,89.4,69.4,38.8,78.6
